This assay deals with T1, VEGFR-2 (Homo sapiens, UniProt P35968).
T1 construct: purchased Cell Signaling Technology CO
T1 sequence (P35968 20-1356): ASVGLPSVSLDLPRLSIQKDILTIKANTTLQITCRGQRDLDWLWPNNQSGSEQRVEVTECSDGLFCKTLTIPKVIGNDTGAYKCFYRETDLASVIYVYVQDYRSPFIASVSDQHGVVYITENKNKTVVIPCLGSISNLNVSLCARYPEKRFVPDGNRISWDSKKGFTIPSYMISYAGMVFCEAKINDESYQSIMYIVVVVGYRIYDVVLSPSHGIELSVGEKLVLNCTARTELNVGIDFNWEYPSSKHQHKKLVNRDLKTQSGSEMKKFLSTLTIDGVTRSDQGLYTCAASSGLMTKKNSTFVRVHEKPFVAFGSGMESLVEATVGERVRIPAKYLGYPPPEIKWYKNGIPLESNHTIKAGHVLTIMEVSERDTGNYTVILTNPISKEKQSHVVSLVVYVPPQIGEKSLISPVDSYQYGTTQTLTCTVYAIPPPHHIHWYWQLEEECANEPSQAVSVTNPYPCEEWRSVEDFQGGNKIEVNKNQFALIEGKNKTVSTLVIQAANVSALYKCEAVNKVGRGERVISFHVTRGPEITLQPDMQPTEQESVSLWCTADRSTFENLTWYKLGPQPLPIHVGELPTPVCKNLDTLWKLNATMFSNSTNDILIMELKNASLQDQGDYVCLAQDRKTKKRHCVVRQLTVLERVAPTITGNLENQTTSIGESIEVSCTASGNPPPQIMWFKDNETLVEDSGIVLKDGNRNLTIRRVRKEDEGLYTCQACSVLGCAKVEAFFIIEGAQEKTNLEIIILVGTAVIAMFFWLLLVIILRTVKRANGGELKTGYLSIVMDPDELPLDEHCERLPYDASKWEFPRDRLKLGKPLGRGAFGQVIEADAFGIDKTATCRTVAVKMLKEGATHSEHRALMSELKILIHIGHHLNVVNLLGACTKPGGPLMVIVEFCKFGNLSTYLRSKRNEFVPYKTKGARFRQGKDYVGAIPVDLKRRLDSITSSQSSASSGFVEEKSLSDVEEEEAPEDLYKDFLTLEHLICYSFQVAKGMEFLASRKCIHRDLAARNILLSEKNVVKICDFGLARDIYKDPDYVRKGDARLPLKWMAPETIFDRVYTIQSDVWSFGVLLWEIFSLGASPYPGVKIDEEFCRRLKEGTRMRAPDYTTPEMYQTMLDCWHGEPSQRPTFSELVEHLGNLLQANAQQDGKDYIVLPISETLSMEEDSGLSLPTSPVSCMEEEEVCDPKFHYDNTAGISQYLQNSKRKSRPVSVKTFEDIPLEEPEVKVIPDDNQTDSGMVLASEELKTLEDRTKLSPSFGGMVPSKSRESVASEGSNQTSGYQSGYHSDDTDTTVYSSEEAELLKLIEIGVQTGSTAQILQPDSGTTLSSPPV
The assay is described as follows: Protein kinase activity by ELISA in vitro, VEGFR-2. The note with it: read-out: IC50 of the VEGF Receptor Kinase. Type of assay: biochemical. Here is the method:
An ELISA (Enzyme-Linked Immunosorbent Sandwich Assay) procedure may be used to detect and measure the level of protein tyrosine kinase activity. […] According to the principle of ELISA, a monoclonal antibody can react with phosphorylated substrate specially, so biotin-labeled substrate is binded to streptavidin-coated ELISA plate, and then binded to a HRP-labeled goat anti-mouse antibody. Finally TMB is added for a color reaction and the value of A450-A630 is read by ELISA plate reader. The OD value can reflect the inhibitory activity of the VEGFR-2, PDGFR-β, c-Kit tyrosine kinases etc. treated with the test compounds at the different concentrations. So, the assay may be used to measure the inhibition ratio of the compounds for the tyrosine kinase activity. Similar assays can be designed along the same lines for any PK using techniques well known in the art.
According to the principle of ELISA, a monoclonal antibody can react with phosphorylated substrate specially, so biotin-labeled substrate is binded to streptavidin-coated ELISA plate, and then binded to a HRP-labeled goat anti-mouse antibody. Finally TMB is added for a color reaction and the value of A450-A630 is read by ELISA plate reader. The OD value can reflect the inhibitory activity of the VEGFR-2, PDGFR-β c-Kit tyrosine kinases treated with the test compounds at the different concentrations. So, the assay may be used to measure the inhibition ratio of the compounds for the tyrosine kinase activity. Similar assays can be designed along the same lines for any PK using techniques well known in the art.
VEGF Receptor 2, PDGF Receptor-beta and c-kit kinase assay kit (include kinase, 1.25M DTT, substrate peptide, 10 mM ATP, P-Tyr-100 Mouse antibody, 4×HTScan tyrosine kinase buffer), Cell Signaling Technology CO.; HRP labeled goat anti mouse IgG, Protein Tech CO.; TMB, Pierce CO.; Streptavidin Microtitration Plate, Greiner Bio-one CO.; Infinite M200 Reader, Tecan CO.
1.2.1 Immediately transfer enzyme from −80° C. to ice. Allow enzyme to thaw on ice then at 4° C. and centrifugate transiently to the bottom of centrifuge tube, then lay back on ice quickly
1.2.2 Add 10 μl of DTT (1.25 M) to 2.5 ml of 4×HTScan tyrosine kinase buffer (240 mM HEPES pH 7.5, 20 mM MgCl2, 20 mM MnCl2, 12 μM Na3VO4). Transfer 0.6 ml of DTT/Kinase buffer to each enzyme tube to make 4× reaction Cocktail. Incubate 12.5 μl of the 4× reaction cocktail with 12.5 μl/well prediluted compound of interest for 5 minutes at room temperature, and set blank control, free-enzyme control, negative control and positive control. 1.2.3 Add 10 μl 10 mM ATP to 1.25 ml 6 μM substrate peptide. Dilute the mixture with dH20 to 2.5 ml to make 2×ATP/substrate cocktail. Add 25 μl of 2×ATP/substrate cocktail to 25 μl/well preincubated reaction cocktail/compound. Incubate reaction plate at room temperature for 30 minutes. 1.2.4 Add 50 μl/well stop Buffer (50 mM EDTA, pH 8) to stop the reaction. Transfer 25 μl of each reaction and 75 μl dH2O/well to a 96-well streptavidin coated plate and incubate at room temperature for 60 minutes. Wash three times with 200 μl/well PBS/T(1×PBS, 0.05% Tween-20). 1.2.5 Dilute primary antibody, Phospho-Tyrosine mAb (P-Tyr-100), 1:500 in PBS/T with 1% BSA. Add 100 μl/well primary antibody. Incubate at room temperature for 60 minutes. Wash three times with 200 μl/well PBS/T(1×PBS, 0.05% Tween-20). 1.2.6 Prepare appropriate dilution of HRP labeled secondary antibody, 1:500 in PBS/T with 1% BSA. Add 100 μl/well secondary antibody solution. Incubate at room temperature for 30 minutes. Wash five times with 200 μl/well PBS/T 1.2.7 Add 100 μl/well TMB substrate and incubate at room temperature for 1-10 minutes. Add 50 μl 2M H2SO4 to stop the color reaction. Read the absorbance of A450-A630 with the Infinite M200 microtiter plate reader. 1.2.8 Calculate the inhibition ratio with the following formula: […]
In general, IC50 refers to the concentration that inhibits the measured activity by half. In the case of `CCN(CC)CCNC(=O)c1c(C)[nH]c2c1CCC/C2=C1/C(=O)Nc2ccc(OC)cc21` [I-53, N-(2-(diethylamino)ethyl)-2-methyl-7-[1,2-dihydro-5-methoxy-2-oxo-3H-indol-(Z)-3-ylidene]-4,5,6,7-tetrahydro-1H-indole-3-carboxamide], the IC50 amounted to 13 nM. As to `CCN(CC)CCNC(=O)c1c(C)[nH]c2c1CCC/C2=C1/C(=O)Nc2ccc(Br)cc21` [I-36, N-(2-(diethylamino)ethyl)-2-methyl-7-[1,2-dihydro-5-bromo-2-oxo-3H-indol-(Z)-3-ylidene]-4,5,6,7-tetrahydro-1H-indole-3-carboxamide], the IC50 was 6.3 nM. As to `CCN(CC)CCNC(=O)c1c(C)[nH]c2c1CCC/C2=C1/C(=O)Nc2ccc(NC(C)=O)cc21` [I-45], the IC50 came out at 8 nM. As for `Cc1[nH]c2c(c1C(=O)NCCc1ccccn1)CCC/C2=C1/C(=O)Nc2ccc(F)cc21` [I-56, N-(2-(pyridin-2-yl)ethyl)-2-methyl-7-[1,2-dihydro-5-fluoro-2-oxo-3H-indol-(Z)-3-ylidene]-4,5,6,7-tetrahydro-1H-indole-3-carboxamide], the concentration for half-maximal inhibition (IC50) was determined as 17 nM. The value for `CCN(CC)CCNC(=O)c1c(C)[nH]c2c1CCC/C2=C1/C(=O)Nc2c(F)cccc21` [I-40, N-(2-(diethylamino)ethyl)-2-methyl-7-[1,2-dihydro-7-fluoro-2-oxo-3H-indol-(Z)-3-ylidene]-4,5,6,7-tetrahydro-1H-indole-3-carboxamide] was 82 nM; that for `CCN(CC)CCNC(=O)c1c(C)[nH]c2c1CCC/C2=C1/C(=O)Nc2cccc(F)c21` [I-49, N-(2-(diethylamino)ethyl)-2-methyl-7-[1,2-dihydro-4-fluoro-2-oxo-3H-indol-(Z)-3-ylidene]-4,5,6,7-tetrahydro-1H-indole-3-carboxamide] was 12 nM.

In the case of `CCN(CC)CCNC(=O)c1c(C)[nH]c2c1CCC/C2=C1/C(=O)Nc2cc(Cl)ccc21` [I-46, N-(2-(diethylamino)ethyl)-2-methyl-7-[1,2-dihydro-6-chloro-2-oxo-3H-indol-(Z)-3-ylidene]-4,5,6,7-tetrahydro-1H-indole-3-carboxamide], the IC50 stood at 11 nM. In the case of `CCN(CC)CCNC(=O)c1c(C)[nH]c2c1CCC/C2=C1/C(=O)Nc2ccc(C(=O)Nc3ccc(F)cc3)cc21` [I-51, N-(2-(diethylamino)ethyl)-2-methyl-7-[N-(4-fluorophenyl)-5-carboxamide-1,2-dihydro-2-oxo-3H-indol-(Z)-3-ylidene]-4,5,6,7-tetrahydro-1H-indole-3-carboxamide], the IC50 was 54 nM. For the compound `Cc1[nH]c2c(c1C(=O)N1CCC[C@H]1CN1CCCC1)CCC/C2=C1/C(=O)Nc2ccc(F)cc21` [I-60], the IC50 was 14 nM.

Take `Cc1[nH]c2c(c1C(=O)NCCN1CCOCC1)CCC/C2=C1/C(=O)Nc2ccc(Cl)cc21` [I-19, N-(2-morpholinoethyl)-2-methyl-7-[1,2-dihydro-5-chloro-2-oxo-3H-indol-(Z)-3-ylidene]-4,5,6,7-tetrahydro-1H-indole-3-carboxamide]: the concentration for half-maximal inhibition (IC50) was 31 nM. The value for `CCN(CC)CCNC(=O)c1c(C)[nH]c2c1CCC/C2=C1/C(=O)Nc2ccc(S(=O)(=O)NC)cc21` [I-55, N-(2-(diethylamino)ethyl)-2-methyl-7-[N-methyl-1,2-dihydro-2-oxo-3H-indol-5-sulfonamide-(Z)-3-ylidene]-4,5,6,7-tetrahydro-1H-indole-3-carboxamide] was 19 nM; that for `Cc1[nH]c2c(c1C(=O)N(C)CCN(C)C)CCC/C2=C1/C(=O)Nc2ccc(F)cc21` [I-57, N-(2-(dimethylamino)ethyl)-N,2-dimethyl-7-[1,2-dihydro-5-fluoro-2-oxo-3H-indol-(Z)-3-ylidene]-4,5,6,7-tetrahydro-1H-indole-3-carboxamide] was 13 nM. As to `Cc1[nH]c2c(c1C(=O)NCCN1CCCCC1)CCC/C2=C1/C(=O)Nc2ccc(F)cc21` [I-26, N-(2-(piperidin-1-yl)ethyl)-2-methyl-7-[1,2-dihydro-5-fluoro-2-oxo-3H-indol-(Z)-3-ylidene]-4,5,6,7-tetrahydro-1H-indole-3-carboxamide], the half-maximal inhibitory concentration (IC50) is 9.1 nM.

On to `CCN(CC)CCNC(=O)c1c(C)[nH]c2c1CCC/C2=C1/C(=O)Nc2ccc(C(=O)O)cc21` [I-44, N-(2-(diethylamino)ethyl)-2-methyl-7-[1,2-dihydro-5-carboxyl-2-oxo-3H-indol-(Z)-3-ylidene]-4,5,6,7-tetrahydro-1H-indole-3-carboxamide], for which the IC50 came to 6.8 nM. For the compound `CCN(CC)CCNC(=O)c1c(C)[nH]c2c1CCC/C2=C1/C(=O)Nc2c(C)cc(C)cc21` [I-34, N-(2-(diethylamino)ethyl)-2-methyl-7-[1,2-dihydro-5,7-dimethyl-2-oxo-3H-indol-(Z)-3-ylidene]-4,5,6,7-tetrahydro-1H-indole-3-carboxamide], the IC50 is 11 nM. As for `Cc1[nH]c2c(c1C(=O)NCCCN1CCOCC1)CCC/C2=C1/C(=O)Nc2ccc(F)cc21` [I-21, N-(3-morpholinopropyl)-2-methyl-7-[1,2-dihydro-5-fluoro-2-oxo-3H-indol-(Z)-3-ylidene]-4,5,6,7-tetrahydro-1H-indole-3-carboxamide], the IC50 is 27 nM.

The record behind these values is US8084621B2, “3-Pyrrolo[b]cyclohexylene-2-dihydroindolinone derivatives and uses thereof” (Jiangsu Simcere Pharmaceutical R&D Co. Ltd., priority 2006, dated 2011).
